Reference: the supplement of paper PMC4862054

What was measured:
Experiment in all cases: normalised viability (% of control), CellTiter-Blue; higher = more viable cells (about 100 = DMSO control)
Conditions in all cases: incubation time: 72 h
MDA-MB-453 [1] = tested on: MDA-MB-453
Experimental: (§1)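 DSRT, CellTiter-Blue viability, 72 h incubation. Signal is normalised to DMSO and benzethonium chloride controls. Value is the normalised response at dose 7.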

CAL-148 [2] = tested on: CAL-148
Experimental: as §1

CAL-85-1 [3] = tested on: CAL-85-1
Experimental: as §1

DU-4475 [4] = tested on: DU-4475
Experimental: as §1

HDQ-P1 [5] = tested on: HDQ-P1
Experimental: as §1

CAL-51 [6] = tested on: CAL-51
Experimental: as §1

MDA-MB-453 [7] = tested on: MDA-MB-453; remark: listed apart in the source
Experimental: (§2)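 DSRT, CellTiter-Blue viability, 72 h incubation. Signal is normalised to DMSO and benzethonium chloride controls. Value is the normalised response at dose 9.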

CAL-148 [8] = tested on: CAL-148; remark: listed apart in the source
Experimental: as §2

CAL-85-1 [9] = tested on: CAL-85-1; remark: listed apart in the source
Experimental: as §2

DU-4475 [10] = tested on: DU-4475; remark: listed apart in the source
Experimental: as §2

HDQ-P1 [11] = tested on: HDQ-P1; remark: listed apart in the source
Experimental: as §2

CAL-51 [12] = tested on: CAL-51; remark: listed apart in the source
Experimental: as §2

SK-BR-3 = tested on: SK-BR-3
Method in brief: (§3)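 Plates were quality-checked by Z'-factor and normalised to vehicle (100) and a positive kill control (0). The underlying assay incubated breast cancer cell lines for 72 h on 384-well plates with compound, then added 2.5 µl CellTiter-Blue for 2 h at 37 °C and read at 560/590 nm. The value is normalised viability at a single listed concentration of the series.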

HCC1937 = tested on: HCC1937
Method in brief: as §3

HCC1599 = tested on: HCC1599
Method in brief: as §3

MDA-MB-468 = tested on: MDA-MB-468
Method in brief: as §3

MDA-MB-453 [13] = tested on: MDA-MB-453; remark: listed apart in the source
Method in brief: as §3

MDA-MB-231 = tested on: MDA-MB-231
Method in brief: as §3

CAL-148 [14] = tested on: CAL-148; remark: listed apart in the source
Method in brief: as §3

CAL-85-1 [15] = tested on: CAL-85-1; remark: listed apart in the source
Method in brief: as §3

DU-4475 [16] = tested on: DU-4475; remark: listed apart in the source
Method in brief: as §3

HCC1143 = tested on: HCC1143
Method in brief: as §3

HDQ-P1 [17] = tested on: HDQ-P1; remark: listed apart in the source
Method in brief: as §3

Hs578T = tested on: Hs578T
Method in brief: as §3

CAL-120 = tested on: CAL-120
Method in brief: as §3

MFM-223 = tested on: MFM-223
Method in brief: as §3

BT-549 = tested on: BT-549
Method in brief: as §3

CAL-51 [18] = tested on: CAL-51; remark: listed apart in the source
Method in brief: as §3

BT-474 = tested on: BT-474
Method in brief: as §3

CAL-148 [19] = tested on: CAL-148; remark: listed apart in the source
Experimental: (§4)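 DSRT, CellTiter-Blue viability, 72 h incubation. Signal is normalised to DMSO and benzethonium chloride controls. Value is the normalised response at dose 8.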

CAL-85-1 [20] = tested on: CAL-85-1; remark: listed apart in the source
Experimental: as §4

DU-4475 [21] = tested on: DU-4475; remark: listed apart in the source
Experimental: as §4

## CNNCc1ccc(C(=O)NC(C)C)cc1 [Procarbazine]
MDA-MB-453 [1]; 1000 nM
  normalised viability: 113%
CAL-148 [2]; 1000 nM
  normalised viability: 87.9%
CAL-85-1 [3]; 1000 nM
  normalised viability: 89.2%
DU-4475 [4]; 1000 nM
  normalised viability: 105%
HDQ-P1 [5]; 1000 nM
  normalised viability: 95.7%
CAL-51 [6]; 1000 nM
  normalised viability: 100%
MDA-MB-453 [7]; 10000 nM
  normalised viability: 110%
CAL-148 [8]; 10000 nM
  normalised viability: 97%
CAL-85-1 [9]; 10000 nM
  normalised viability: 85.1%
DU-4475 [10]; 10000 nM
  normalised viability: 85%
HDQ-P1 [11]; 10000 nM
  normalised viability: 124%
CAL-51 [12]; 10000 nM
  normalised viability: 102%
SK-BR-3; 1000 nM
  normalised viability: 113%
HCC1937; 1000 nM
  normalised viability: 77.8%
HCC1599; 1000 nM
  normalised viability: 88.9%
MDA-MB-468; 1000 nM
  normalised viability: 124%
MDA-MB-453 [13]; 30 nM
  normalised viability: 114%
MDA-MB-231; 1000 nM
  normalised viability: 119%
CAL-148 [14]; 30 nM
  normalised viability: 101%
CAL-85-1 [15]; 30 nM
  normalised viability: 87.4%
DU-4475 [16]; 30 nM
  normalised viability: 107%
HCC1143; 1000 nM
  normalised viability: 105%
HDQ-P1 [17]; 30 nM
  normalised viability: 103%
Hs578T; 1000 nM
  normalised viability: 103%
CAL-120; 1000 nM
  normalised viability: 99%
MFM-223; 1000 nM
  normalised viability: 95.5%
BT-549; 1000 nM
  normalised viability: 98.8%
CAL-51 [18]; 30 nM
  normalised viability: 106%
BT-474; 1000 nM
  normalised viability: 114%
CAL-148 [19]; 3000 nM
  normalised viability: 101%
CAL-85-1 [20]; 3000 nM
  normalised viability: 95.7%
DU-4475 [21]; 3000 nM
  normalised viability: 100%

## C/C(=C\c1csc(C)n1)[C@@H]1C[C@@H]2O[C@]2(C)CCC[C@H](C)[C@H](O)[C@@H](C)C(=O)C(C)(C)[C@@H](O)CC(=O)O1 [Patupilone]
MDA-MB-453 [1]; 100 nM
  normalised viability: 20.4%
CAL-148 [2]; 100 nM
  normalised viability: 17.9%
CAL-85-1 [3]; 100 nM
  normalised viability: 28.6%
DU-4475 [4]; 100 nM
  normalised viability: 7.8%
HDQ-P1 [5]; 100 nM
  normalised viability: 41.5%
CAL-51 [6]; 100 nM
  normalised viability: 12.2%
MDA-MB-453 [7]; 1000 nM
  normalised viability: 20.9%
CAL-148 [8]; 1000 nM
  normalised viability: 19.9%
CAL-85-1 [9]; 1000 nM
  normalised viability: 30.3%
DU-4475 [10]; 1000 nM
  normalised viability: 2.77%
HDQ-P1 [11]; 1000 nM
  normalised viability: 55.1%
CAL-51 [12]; 1000 nM
  normalised viability: 13.6%
SK-BR-3; 100 nM
  normalised viability: 15.8%
HCC1937; 100 nM
  normalised viability: 10.9%
HCC1599; 100 nM
  normalised viability: 92.2%
MDA-MB-468; 100 nM
  normalised viability: 49.5%
MDA-MB-453 [13]; 3 nM
  normalised viability: 63.5%
MDA-MB-231; 100 nM
  normalised viability: 20.1%
CAL-148 [14]; 3 nM
  normalised viability: 57.9%
CAL-85-1 [15]; 3 nM
  normalised viability: 49.4%
DU-4475 [16]; 3 nM
  normalised viability: 89.2%
HCC1143; 100 nM
  normalised viability: 34.3%
HDQ-P1 [17]; 3 nM
  normalised viability: 107%
Hs578T; 100 nM
  normalised viability: 14.1%
CAL-120; 100 nM
  normalised viability: 23.2%
MFM-223; 100 nM
  normalised viability: 45.9%
BT-549; 100 nM
  normalised viability: 27.2%
CAL-51 [18]; 3 nM
  normalised viability: 103%
BT-474; 100 nM
  normalised viability: 24.8%
CAL-148 [19]; 300 nM
  normalised viability: 17.6%
CAL-85-1 [20]; 300 nM
  normalised viability: 26.8%
DU-4475 [21]; 300 nM
  normalised viability: 7.32%
